# Experimental data published in patent US20260007613A1, “LONG-ACTING LOW-TOXICITY NOVEL CATIONIC LIPID COMPOUNDS AND COMPOSITION THEREOF” (BEIJING YOUCAREKECHUANG PHARMACEUTICAL TECHNOLOGY CO., LTD., priority 2023, published 2026).
# Where “and” joins values, the source holds several entries; their conditions need not be identical. Equal entries are not always repeated.
# Columns and labels:
# 293T cells [1] = assay: Fluorescent detection of Fluc-mRNA (cell transfection efficiency of LNP formulations); format: cell-based
# Summary of the method: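 Transfection read-out: IVIS imaging after […], 24 h after adding LNPs (lipid molar ratio 49:10:39.5:1.5 cationic/neutral/structured/polymer-lipid; […] Fluc-mRNA). Adherent 293T cells were seeded overnight at 10,000 per well beforehand.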
# [2] = Particle size and polydispersity index (PDI) of lipid nanoparticles by dynamic light scattering; format: physicochemical; settings: LNP formulation prepared from the cationic lipid, 25° C.
# Description: The particle size and polydispersity index (PDI) were determined by dynamic light scattering using Malvern laser particle size analyzer.
# 10 μL of the liposome solution was weighed, diluted to 1 mL with RNase-free deionized water, and added to the sample pool. Each sample was measured in triplicate. The measurement conditions were: […] scattering angle, and 25° C.
# 293T cells [3] = assay: Cell survival rate determination (CCK-8); format: cell-based
# Summary of the method: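 Readout was CCK-8 absorbance (450 nm, 1 h) taken after a 24 h exposure of overnight-adhered 293T cells (10,000 per well, 96-well) to Lipofectamine 3000 or to LNPs carrying Fluc-mRNA, lipid molar ratio 49:10:39.5:1.5 cationic/neutral/structured/polymer-conjugated.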
# female BALB/C mice = assay: Live imaging in mice: protein expression of Fluc-mRNA delivered by LNP formulations; format: in vivo; settings: for average radiation intensity, times that of ALC-0315: comparator ALC-0315; for average radiation intensity, times that of HHMA: comparator HHMA; for average radiation intensity, times that of SM-102: comparator SM-102; for expression of mRNA in mice, times that of YK-302: comparator YK-302; for expression amount, times that of YK-309: comparator YK-309; for expression amount, times that of YK-313: comparator YK-313; for expression amount, times that of YK-321: comparator YK-321; for average radiation intensity, times that of compound 21: comparator compound 21; for average radiation intensity, times that of compound 23: comparator compound 23
# Summary of the method: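 Female BALB/C mice (4-6 weeks, 17-19 g) received LNP-formulated Fluc-mRNA […] intramuscularly. At 6 h, 24 h, 48 h and 7 d, luciferase substrate given intraperitoneally, and after 5 min average radiance measured by IVIS whole-body imaging.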
# liver = assay: Distribution of liposomes in mice: protein expression in the liver (live imaging); format: in vivo; settings: at 6 h, intramuscular injection
# Description: The LNP formulation containing […] Fluc-mRNA was injected intramuscularly into female BALB/C mice aged 4 to 6 weeks old and weighed 17 to 19 g, and the mice were intraperitoneally injected with fluorescent imaging substrate at specific time points after administration (6 h, 24 h, 48 h and 7 d), where the mice were free to move for 5 minutes, and then the average radiation intensity (corresponding to fluorescence expression intensity) of the protein expression of the mRNA carried by the LNP in the mice was detected by the IVIS Spectrum small animal live imaging device.
# At 24 h, the LNP formulations prepared from all compounds had been metabolized in the liver and had no protein expression.
compound,measurement,setting,value
CCCCCCCCCCCOC(=O)CCCCCN(CCCC(=O)OCCCC(CCCCCCCCCC)CCCCCCCCCC)C[C@H](O)CN(CC)CCO [YK-310],Relative light unit (RLU),"293T cells [1]; LNP formulation of Fluc-mRNA, 96-well plate, 24 hours",25797040 RLU
same,Multiples (YK-305),293T cells [1]; RLU of YK-305 / RLU of the lipid of the line,1.06
same,Multiples (YK-310),293T cells [1]; RLU of YK-310 / RLU of the lipid of the line,1.00
same,Multiples (YK-312),293T cells [1]; RLU of YK-312 / RLU of the lipid of the line,0.78
same,Multiples (YK-318),"293T cells [1]; RLU of YK-318 / RLU of the lipid of the line, Tables 5, 7, 11",0.43
same,Multiples (YK-319),"293T cells [1]; RLU of YK-319 / RLU of the lipid of the line, Tables 5, 7, 11",0.95
same,Ratio relative to SM-102,"293T cells [1]; RLU of the lipid / RLU of SM-102, times that of SM-102",16.08
same,"cell transfection efficiency, times that of ALC-0315",293T cells [1]; comparator ALC-0315,12.69 times
same,"cell transfection efficiency, times that of HHMA",293T cells [1]; comparator HHMA,12.86 times
same,"cell transfection efficiency, times that of Lipofectamine 3000",293T cells [1]; comparator Lipofectamine 3000,21.76 times
same,"cell transfection efficiency, times that of YK-009",293T cells [1]; comparator YK-009,5.04 times
same,"cell transfection efficiency, times that of YK-301",293T cells [1]; comparator YK-301,30.62 times
same,"cell transfection efficiency, times that of YK-302",293T cells [1]; comparator YK-302,928.69 times
same,"cell transfection efficiency, times that of YK-303",293T cells [1]; comparator YK-303,41.19 times
same,"cell transfection efficiency, times that of YK-304",293T cells [1]; comparator YK-304,~1200 times and 1247.08 times
same,"cell transfection efficiency, times that of YK-306",293T cells [1]; comparator YK-306,11.74 times
same,"cell transfection efficiency, times that of YK-307",293T cells [1]; comparator YK-307,5.66 times
same,"cell transfection efficiency, times that of YK-308",293T cells [1]; comparator YK-308,5.12 times
same,"cell transfection efficiency, times that of YK-309",293T cells [1]; comparator YK-309,~200 times and 205.77 times
same,"cell transfection efficiency, times that of YK-311",293T cells [1]; comparator YK-311,13.14 times
same,"cell transfection efficiency, times that of YK-313",293T cells [1]; comparator YK-313,29.77 times
same,"cell transfection efficiency, times that of YK-314",293T cells [1]; comparator YK-314,47.12 times
same,"cell transfection efficiency, times that of YK-315",293T cells [1]; comparator YK-315,16.25 times
same,"cell transfection efficiency, times that of YK-316",293T cells [1]; comparator YK-316,5.36 times
same,"cell transfection efficiency, times that of YK-317",293T cells [1]; comparator YK-317,7.16 times
same,"cell transfection efficiency, times that of YK-320",293T cells [1]; comparator YK-320,9.54 times
same,"cell transfection efficiency, times that of YK-321",293T cells [1]; comparator YK-321,18.38 times
same,"cell transfection efficiency, times that of compound 21",293T cells [1]; comparator compound 21,18.01 times
same,"cell transfection efficiency, times that of compound 23",293T cells [1]; comparator compound 23,19.02 times
same,PDI (%),[2],12.4%
same,Particle size (nm),[2],192 nm
same,Cell survival rate (%),"293T cells [3]; LNP formulation of Fluc-mRNA, 24 hours, CCK-8",82.10%
same,cell survival rate higher than ALC-0315,"293T cells [3]; difference of survival rates, comparator ALC-0315",31.07% and ~30%
same,cell survival rate higher than HHMA,"293T cells [3]; difference of survival rates, comparator HHMA",15.63% and ~15%
same,cell survival rate higher than Lipofectamine 3000,"293T cells [3]; difference of survival rates, comparator Lipofectamine 3000",57.09%
same,cell survival rate higher than SM-102,"293T cells [3]; difference of survival rates, comparator SM-102",12.65% and ~12%
same,cell survival rate higher than YK-301,"293T cells [3]; difference of survival rates, comparator YK-301",29.14%
same,cell survival rate higher than YK-302,"293T cells [3]; difference of survival rates, comparator YK-302",65.67% and ~65% and ~50%
same,cell survival rate higher than YK-303,"293T cells [3]; difference of survival rates, comparator YK-303",18.78%
same,cell survival rate higher than YK-304,"293T cells [3]; difference of survival rates, comparator YK-304",47.94%
same,cell survival rate higher than YK-306,"293T cells [3]; difference of survival rates, comparator YK-306",39.91%
same,cell survival rate higher than YK-307,"293T cells [3]; difference of survival rates, comparator YK-307",20.96%
same,cell survival rate higher than YK-308,"293T cells [3]; difference of survival rates, comparator YK-308",11.11%
same,cell survival rate higher than YK-309,"293T cells [3]; difference of survival rates, comparator YK-309",50.49%
same,cell survival rate higher than YK-311,"293T cells [3]; difference of survival rates, comparator YK-311",12.04%
same,cell survival rate higher than YK-313,"293T cells [3]; difference of survival rates, comparator YK-313",13.17%
same,cell survival rate higher than YK-314,"293T cells [3]; difference of survival rates, comparator YK-314",14.22%
same,cell survival rate higher than YK-315,"293T cells [3]; difference of survival rates, comparator YK-315",10.82%
same,cell survival rate higher than YK-316,"293T cells [3]; difference of survival rates, comparator YK-316",11.57%
same,cell survival rate higher than YK-317,"293T cells [3]; difference of survival rates, comparator YK-317",22.92% and ~20%
same,cell survival rate higher than YK-320,"293T cells [3]; difference of survival rates, comparator YK-320",11.03%
same,cell survival rate higher than YK-321,"293T cells [3]; difference of survival rates, comparator YK-321",9.76%
same,cell survival rate higher than compound 21,"293T cells [3]; difference of survival rates, comparator compound 21",11.89%
same,cell survival rate higher than compound 23,"293T cells [3]; difference of survival rates, comparator compound 23",10.60%
same,"average radiation intensity, times that of ALC-0315",female BALB/C mice; 6 h,10.56 times
same,"average radiation intensity, times that of HHMA",female BALB/C mice; 6 h,14.02 times
same,"average radiation intensity, times that of SM-102",female BALB/C mice; 6 h,13.01 times
same,"expression of mRNA in mice, times that of YK-302",female BALB/C mice; 6 h,625.87 times
same,"expression amount, times that of YK-309",female BALB/C mice; 6 h,138.93 times
same,"expression amount, times that of YK-313",female BALB/C mice; 6 h,20.64 times
same,"expression amount, times that of YK-321",female BALB/C mice; 6 h,17.70 times
same,"average radiation intensity, times that of compound 21",female BALB/C mice; 6 h,14.95 times
same,"average radiation intensity, times that of compound 23",female BALB/C mice; 6 h,15.48 times
same,average radiation intensity,female BALB/C mice; 6 h after intramuscular injection,9125240
same,"average radiation intensity, times that of ALC-0315",female BALB/C mice; 24 h,15.50 times
same,"average radiation intensity, times that of HHMA",female BALB/C mice; 24 h,24.61 times
same,"average radiation intensity, times that of SM-102",female BALB/C mice; 24 h,24.51 times
same,"expression of mRNA in mice, times that of YK-302",female BALB/C mice; 24 h,746.29 times
same,"expression amount, times that of YK-309",female BALB/C mice; 24 h,175.52 times
same,"expression amount, times that of YK-313",female BALB/C mice; 24 h,28.27 times
same,"expression amount, times that of YK-321",female BALB/C mice; 24 h,29.16 times and ~29 times
same,"average radiation intensity, times that of compound 21",female BALB/C mice; 24 h,26.88 times
same,"average radiation intensity, times that of compound 23",female BALB/C mice; 24 h,28.24 times
same,average radiation intensity,female BALB/C mice; 24 h after intramuscular injection,2952310
same,"average radiation intensity, times that of ALC-0315",female BALB/C mice; 48 h,24.64 times
same,"average radiation intensity, times that of HHMA",female BALB/C mice; 48 h,30.13 times
same,"average radiation intensity, times that of SM-102",female BALB/C mice; 48 h,30.14 times
same,"expression of mRNA in mice, times that of YK-302",female BALB/C mice; 48 h,957.07 times
same,"expression amount, times that of YK-309",female BALB/C mice; 48 h,149.75 times
same,"expression amount, times that of YK-313",female BALB/C mice; 48 h,38.38 times
same,"expression amount, times that of YK-321",female BALB/C mice; 48 h,26.83 times
same,"average radiation intensity, times that of compound 21",female BALB/C mice; 48 h,31.67 times
same,"average radiation intensity, times that of compound 23",female BALB/C mice; 48 h,29.62 times
same,average radiation intensity,female BALB/C mice; 48 h after intramuscular injection,981000
same,"average radiation intensity, times that of ALC-0315",female BALB/C mice; 7 d,16.67 times
same,"average radiation intensity, times that of HHMA",female BALB/C mice; 7 d,20.01 times
same,"average radiation intensity, times that of SM-102",female BALB/C mice; 7 d,17.74 times
same,"expression of mRNA in mice, times that of YK-302",female BALB/C mice; 7 d,305.89 times
same,"expression amount, times that of YK-309",female BALB/C mice; 7 d,93.52 times
same,"expression amount, times that of YK-313",female BALB/C mice; 7 d,36.31 times
same,"expression amount, times that of YK-321",female BALB/C mice; 7 d,17.84 times and ~17 times
same,"average radiation intensity, times that of compound 21",female BALB/C mice; 7 d,18.23 times
same,"average radiation intensity, times that of compound 23",female BALB/C mice; 7 d,18.82 times
same,average radiation intensity,female BALB/C mice; 7 d after intramuscular injection,117462
same,protein expression in the liver,liver,no protein expression in the liver
